Drawing on ChEMBL document CHEMBL5653631, “A Potent and Selective ULK1 Inhibitor Suppresses Autophagy and Sensitizes Cancer Cells to Nutrient Stress” (iScience, 2018), this text covers fold change (FC) and inhibition for 3 molecules.

Assay [1] deals with Serine/threonine-protein kinase SIK3 (Homo sapiens) (UniProt Q9Y2K2). Kind of assay: Inhibition of human recombinant QSK at 40 nM related to control ULK1.
Assay [2] deals with Serine/threonine-protein kinase 32A (Homo sapiens) (UniProt Q8WU08). Kind of assay: Inhibition of human recombinant YANK1 at 40 nM related to control ULK1.
For assay [3], the target named is Proto-oncogene tyrosine-protein kinase Src (Homo sapiens) (UniProt P12931). Description: Inhibition of human recombinant SRC at 40 nM related to control ULK1.
In assay [4] the target is Ephrin type-A receptor 7 (Homo sapiens) (UniProt Q15375). Kind of assay: Inhibition of human recombinant EphA7 at 40 nM related to control ULK1.
The target of assay [5] is Serine/threonine-protein kinase 32B (Homo sapiens) (UniProt Q9NY57). Description: Inhibition of human recombinant YANK2 at 40 nM in presence of ATP by radiometric assay relative to control.
The target of assay [6] is T1, Tribbles homolog 2 (Homo sapiens) (UniProt Q92519).
T1 sequence (whole entry): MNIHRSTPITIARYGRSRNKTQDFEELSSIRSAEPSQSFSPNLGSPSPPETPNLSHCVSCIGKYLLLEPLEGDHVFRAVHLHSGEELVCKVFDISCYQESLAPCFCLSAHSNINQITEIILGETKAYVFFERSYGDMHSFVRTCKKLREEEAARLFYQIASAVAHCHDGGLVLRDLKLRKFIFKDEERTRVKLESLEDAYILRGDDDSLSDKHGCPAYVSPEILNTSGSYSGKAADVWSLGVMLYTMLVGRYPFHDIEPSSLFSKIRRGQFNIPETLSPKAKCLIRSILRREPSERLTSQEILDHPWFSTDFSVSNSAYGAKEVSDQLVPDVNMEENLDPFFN
Description: Inhibition of human recombinant Trb2 at 40 nM related to control ULK1.

Assay [7] concerns the target Dual specificity mitogen-activated protein kinase kinase 2 (Homo sapiens) (UniProt P36507). Description: Inhibition of human recombinant MAP2K2 at 40 nM in presence of ATP by radiometric assay relative to control.
Assay [8] concerns the target Ribosomal protein S6 kinase alpha-4 (Homo sapiens) (UniProt O75676). Description: Inhibition of human recombinant MSK2 at 500 nM in presence of ATP by radiometric assay relative to control.
In assay [9] the target is RAC-beta serine/threonine-protein kinase (Homo sapiens) (UniProt P31751). Kind of assay: Inhibition of human recombinant AKT2 at 500 nM related to control ULK1.
For assay [10], the target named is Ribosomal protein S6 kinase alpha-1 (Homo sapiens) (UniProt Q15418). Kind of assay: Inhibition of human recombinant RSK1 at 500 nM in presence of ATP by radiometric assay relative to control.
The target in assay [11] is Casein kinase II subunit alpha (Homo sapiens) (UniProt P68400). Kind of assay: Inhibition of human recombinant CK2a1 at 500 nM in presence of ATP by radiometric assay relative to control.
The target in assay [12] is T2, Dual specificity tyrosine-phosphorylation-regulated kinase 3 (Homo sapiens) (UniProt O43781).
T2 sequence (whole entry): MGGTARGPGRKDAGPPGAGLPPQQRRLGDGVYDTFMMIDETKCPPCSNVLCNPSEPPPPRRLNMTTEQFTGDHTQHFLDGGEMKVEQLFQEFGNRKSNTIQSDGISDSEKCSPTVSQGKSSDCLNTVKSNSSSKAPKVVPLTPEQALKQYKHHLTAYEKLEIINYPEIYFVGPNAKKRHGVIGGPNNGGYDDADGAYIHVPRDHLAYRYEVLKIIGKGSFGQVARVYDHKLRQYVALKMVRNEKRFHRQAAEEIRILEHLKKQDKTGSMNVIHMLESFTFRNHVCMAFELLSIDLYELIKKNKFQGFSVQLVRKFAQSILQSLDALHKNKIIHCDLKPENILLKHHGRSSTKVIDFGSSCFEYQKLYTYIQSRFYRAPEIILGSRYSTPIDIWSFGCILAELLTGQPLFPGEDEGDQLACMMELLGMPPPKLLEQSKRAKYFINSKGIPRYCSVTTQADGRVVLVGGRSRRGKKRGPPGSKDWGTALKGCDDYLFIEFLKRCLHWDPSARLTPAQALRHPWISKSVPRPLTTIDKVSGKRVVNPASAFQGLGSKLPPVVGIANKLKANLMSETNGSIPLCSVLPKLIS
Description: Inhibition of human recombinant DYRK3 at 500 nM related to control ULK1.

The target of assay [13] is G protein-coupled receptor kinase 5 (Homo sapiens) (UniProt P34947). Kind of assay: Inhibition of human recombinant GPRK5 at 15 nM related to control ULK1.
The target of assay [14] is Macrophage colony-stimulating factor 1 receptor (Homo sapiens) (UniProt P07333). Description: Inhibition of human recombinant FMS at 15 nM related to control ULK1.
In assay [15] the target is Serine/threonine-protein kinase PAK 3 (Homo sapiens) (UniProt O75914). Kind of assay: Inhibition of human recombinant PAK3 at 15 nM related to control ULK1.
For assay [16], the target named is T3, Serine/threonine-protein kinase DCLK3 (Homo sapiens) (UniProt Q9C098).
T3 sequence (whole entry): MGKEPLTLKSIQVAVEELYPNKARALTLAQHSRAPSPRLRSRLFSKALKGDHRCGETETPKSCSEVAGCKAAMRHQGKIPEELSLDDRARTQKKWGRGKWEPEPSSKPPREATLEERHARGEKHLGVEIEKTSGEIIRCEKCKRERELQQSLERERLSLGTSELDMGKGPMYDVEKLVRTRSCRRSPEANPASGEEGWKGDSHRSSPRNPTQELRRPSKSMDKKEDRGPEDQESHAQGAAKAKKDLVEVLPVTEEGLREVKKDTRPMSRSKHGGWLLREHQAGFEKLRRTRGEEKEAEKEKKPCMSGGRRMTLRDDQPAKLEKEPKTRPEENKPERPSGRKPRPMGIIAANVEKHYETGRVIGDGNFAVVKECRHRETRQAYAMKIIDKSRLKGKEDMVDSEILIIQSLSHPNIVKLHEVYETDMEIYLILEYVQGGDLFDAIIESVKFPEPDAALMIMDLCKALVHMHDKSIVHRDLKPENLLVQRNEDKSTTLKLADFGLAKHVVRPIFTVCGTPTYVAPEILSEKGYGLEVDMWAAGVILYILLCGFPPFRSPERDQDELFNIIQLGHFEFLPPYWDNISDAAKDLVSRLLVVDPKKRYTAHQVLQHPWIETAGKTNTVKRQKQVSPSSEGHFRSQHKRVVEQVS
Kind of assay: Inhibition of human recombinant DCAMKL3 at 15 nM related to control ULK1.

Assay [17] deals with Dual specificity protein kinase CLK3 (Homo sapiens) (UniProt P49761). Kind of assay: Inhibition of human recombinant CLK3 at 15 nM related to control ULK1.
For assay [18], the target named is Calcium/calmodulin-dependent protein kinase kinase 1 (Homo sapiens) (UniProt Q8N5S9). Description: Inhibition of human recombinant CaMKK1 at 15 nM related to control ULK1.

Molecules are shown by their SMILES.

Chain of G protein-coupled receptor kinase 5 (Homo sapiens) (P34947 whole entry, looked up): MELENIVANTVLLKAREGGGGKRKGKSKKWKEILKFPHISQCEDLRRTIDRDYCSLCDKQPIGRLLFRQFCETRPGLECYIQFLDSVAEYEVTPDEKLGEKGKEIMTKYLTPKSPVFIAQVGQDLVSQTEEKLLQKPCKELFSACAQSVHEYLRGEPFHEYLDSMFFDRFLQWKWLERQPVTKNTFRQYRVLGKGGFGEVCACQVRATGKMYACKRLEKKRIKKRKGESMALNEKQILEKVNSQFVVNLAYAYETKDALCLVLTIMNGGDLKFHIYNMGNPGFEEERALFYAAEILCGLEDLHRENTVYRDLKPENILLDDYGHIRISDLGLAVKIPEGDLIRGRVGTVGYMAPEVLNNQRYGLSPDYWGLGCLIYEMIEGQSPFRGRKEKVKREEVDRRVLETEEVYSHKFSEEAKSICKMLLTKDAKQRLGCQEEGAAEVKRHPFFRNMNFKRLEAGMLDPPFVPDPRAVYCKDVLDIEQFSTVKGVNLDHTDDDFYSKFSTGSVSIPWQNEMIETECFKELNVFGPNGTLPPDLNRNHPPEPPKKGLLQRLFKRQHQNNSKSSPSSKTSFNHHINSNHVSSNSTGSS
Chain of Proto-oncogene tyrosine-protein kinase Src (Homo sapiens) (P12931 2-536 limits assumed): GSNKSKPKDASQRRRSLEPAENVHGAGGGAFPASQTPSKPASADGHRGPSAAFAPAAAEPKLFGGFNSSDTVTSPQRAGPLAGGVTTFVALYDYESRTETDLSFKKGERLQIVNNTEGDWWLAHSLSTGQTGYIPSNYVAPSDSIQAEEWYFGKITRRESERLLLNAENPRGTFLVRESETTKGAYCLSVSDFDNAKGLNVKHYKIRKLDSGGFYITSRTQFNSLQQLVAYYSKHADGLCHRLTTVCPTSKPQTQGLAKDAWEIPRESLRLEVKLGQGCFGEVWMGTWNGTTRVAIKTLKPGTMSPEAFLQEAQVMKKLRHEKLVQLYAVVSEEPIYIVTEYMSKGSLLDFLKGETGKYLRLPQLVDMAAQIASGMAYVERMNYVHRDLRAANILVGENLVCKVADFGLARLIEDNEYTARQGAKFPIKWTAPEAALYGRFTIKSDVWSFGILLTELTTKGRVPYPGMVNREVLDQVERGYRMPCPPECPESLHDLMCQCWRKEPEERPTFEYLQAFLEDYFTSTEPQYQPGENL
Chain of Ephrin type-A receptor 7 (Homo sapiens) (Q15375 28-998 limits assumed): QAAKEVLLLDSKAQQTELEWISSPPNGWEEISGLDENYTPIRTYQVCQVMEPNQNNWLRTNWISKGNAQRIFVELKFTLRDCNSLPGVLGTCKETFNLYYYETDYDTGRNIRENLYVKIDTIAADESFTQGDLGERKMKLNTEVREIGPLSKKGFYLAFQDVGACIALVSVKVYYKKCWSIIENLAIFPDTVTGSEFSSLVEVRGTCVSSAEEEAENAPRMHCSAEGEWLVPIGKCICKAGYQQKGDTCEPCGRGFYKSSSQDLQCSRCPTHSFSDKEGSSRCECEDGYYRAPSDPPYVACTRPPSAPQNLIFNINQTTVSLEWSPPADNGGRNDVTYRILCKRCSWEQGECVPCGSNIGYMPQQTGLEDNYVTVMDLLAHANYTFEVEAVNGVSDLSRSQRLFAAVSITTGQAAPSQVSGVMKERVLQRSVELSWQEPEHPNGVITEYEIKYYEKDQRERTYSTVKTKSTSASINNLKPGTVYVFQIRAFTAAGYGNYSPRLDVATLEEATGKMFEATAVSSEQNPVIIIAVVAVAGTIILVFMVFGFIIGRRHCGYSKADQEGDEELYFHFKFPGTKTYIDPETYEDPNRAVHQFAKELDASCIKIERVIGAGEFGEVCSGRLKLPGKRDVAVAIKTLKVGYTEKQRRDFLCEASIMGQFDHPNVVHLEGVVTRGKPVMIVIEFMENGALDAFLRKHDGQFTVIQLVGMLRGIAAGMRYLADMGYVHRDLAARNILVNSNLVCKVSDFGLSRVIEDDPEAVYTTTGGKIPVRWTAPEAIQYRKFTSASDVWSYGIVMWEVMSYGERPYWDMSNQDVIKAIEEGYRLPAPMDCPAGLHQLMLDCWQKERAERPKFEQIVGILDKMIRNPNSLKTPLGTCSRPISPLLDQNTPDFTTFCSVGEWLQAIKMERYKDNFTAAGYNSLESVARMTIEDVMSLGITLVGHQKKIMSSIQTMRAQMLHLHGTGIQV
Chain of Casein kinase II subunit alpha (Homo sapiens) (P68400 whole entry, looked up): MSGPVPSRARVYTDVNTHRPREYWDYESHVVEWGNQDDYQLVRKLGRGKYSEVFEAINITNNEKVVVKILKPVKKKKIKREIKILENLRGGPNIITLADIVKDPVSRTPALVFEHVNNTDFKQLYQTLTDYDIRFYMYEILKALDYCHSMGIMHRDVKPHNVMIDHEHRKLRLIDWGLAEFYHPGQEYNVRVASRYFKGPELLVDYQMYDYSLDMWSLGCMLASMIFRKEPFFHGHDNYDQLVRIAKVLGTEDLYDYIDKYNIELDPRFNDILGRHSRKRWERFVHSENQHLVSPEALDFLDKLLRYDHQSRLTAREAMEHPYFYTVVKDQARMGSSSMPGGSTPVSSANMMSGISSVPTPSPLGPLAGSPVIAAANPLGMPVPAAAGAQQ
Chain of Serine/threonine-protein kinase 32B (Homo sapiens) (Q9NY57 whole entry): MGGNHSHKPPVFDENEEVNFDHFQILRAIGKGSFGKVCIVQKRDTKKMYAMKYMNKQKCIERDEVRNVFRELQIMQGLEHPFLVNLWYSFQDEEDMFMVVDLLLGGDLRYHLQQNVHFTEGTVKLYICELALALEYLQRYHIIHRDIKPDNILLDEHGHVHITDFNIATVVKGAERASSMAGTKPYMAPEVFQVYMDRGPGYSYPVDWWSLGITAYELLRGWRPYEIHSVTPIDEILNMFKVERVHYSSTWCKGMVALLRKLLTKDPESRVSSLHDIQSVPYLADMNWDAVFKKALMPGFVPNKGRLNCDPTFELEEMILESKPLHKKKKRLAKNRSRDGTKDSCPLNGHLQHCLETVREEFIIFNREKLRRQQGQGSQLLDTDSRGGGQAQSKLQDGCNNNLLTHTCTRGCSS
Chain of Calcium/calmodulin-dependent protein kinase kinase 1 (Homo sapiens) (Q8N5S9 whole entry, looked up): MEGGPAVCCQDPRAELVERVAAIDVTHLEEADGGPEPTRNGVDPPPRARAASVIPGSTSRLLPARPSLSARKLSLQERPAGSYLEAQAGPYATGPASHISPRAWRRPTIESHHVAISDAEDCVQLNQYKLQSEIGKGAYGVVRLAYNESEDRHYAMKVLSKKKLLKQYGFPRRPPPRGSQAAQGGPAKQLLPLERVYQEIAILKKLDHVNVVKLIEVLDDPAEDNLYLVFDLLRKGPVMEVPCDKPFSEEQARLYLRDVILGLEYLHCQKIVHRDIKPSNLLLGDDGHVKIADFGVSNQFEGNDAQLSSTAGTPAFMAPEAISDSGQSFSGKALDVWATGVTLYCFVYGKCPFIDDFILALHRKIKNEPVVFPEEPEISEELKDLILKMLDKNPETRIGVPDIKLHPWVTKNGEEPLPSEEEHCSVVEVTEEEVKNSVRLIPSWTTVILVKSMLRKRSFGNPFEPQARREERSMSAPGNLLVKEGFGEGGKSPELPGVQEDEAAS
Chain of Serine/threonine-protein kinase SIK3 (Homo sapiens) (Q9Y2K2 whole entry, looked up): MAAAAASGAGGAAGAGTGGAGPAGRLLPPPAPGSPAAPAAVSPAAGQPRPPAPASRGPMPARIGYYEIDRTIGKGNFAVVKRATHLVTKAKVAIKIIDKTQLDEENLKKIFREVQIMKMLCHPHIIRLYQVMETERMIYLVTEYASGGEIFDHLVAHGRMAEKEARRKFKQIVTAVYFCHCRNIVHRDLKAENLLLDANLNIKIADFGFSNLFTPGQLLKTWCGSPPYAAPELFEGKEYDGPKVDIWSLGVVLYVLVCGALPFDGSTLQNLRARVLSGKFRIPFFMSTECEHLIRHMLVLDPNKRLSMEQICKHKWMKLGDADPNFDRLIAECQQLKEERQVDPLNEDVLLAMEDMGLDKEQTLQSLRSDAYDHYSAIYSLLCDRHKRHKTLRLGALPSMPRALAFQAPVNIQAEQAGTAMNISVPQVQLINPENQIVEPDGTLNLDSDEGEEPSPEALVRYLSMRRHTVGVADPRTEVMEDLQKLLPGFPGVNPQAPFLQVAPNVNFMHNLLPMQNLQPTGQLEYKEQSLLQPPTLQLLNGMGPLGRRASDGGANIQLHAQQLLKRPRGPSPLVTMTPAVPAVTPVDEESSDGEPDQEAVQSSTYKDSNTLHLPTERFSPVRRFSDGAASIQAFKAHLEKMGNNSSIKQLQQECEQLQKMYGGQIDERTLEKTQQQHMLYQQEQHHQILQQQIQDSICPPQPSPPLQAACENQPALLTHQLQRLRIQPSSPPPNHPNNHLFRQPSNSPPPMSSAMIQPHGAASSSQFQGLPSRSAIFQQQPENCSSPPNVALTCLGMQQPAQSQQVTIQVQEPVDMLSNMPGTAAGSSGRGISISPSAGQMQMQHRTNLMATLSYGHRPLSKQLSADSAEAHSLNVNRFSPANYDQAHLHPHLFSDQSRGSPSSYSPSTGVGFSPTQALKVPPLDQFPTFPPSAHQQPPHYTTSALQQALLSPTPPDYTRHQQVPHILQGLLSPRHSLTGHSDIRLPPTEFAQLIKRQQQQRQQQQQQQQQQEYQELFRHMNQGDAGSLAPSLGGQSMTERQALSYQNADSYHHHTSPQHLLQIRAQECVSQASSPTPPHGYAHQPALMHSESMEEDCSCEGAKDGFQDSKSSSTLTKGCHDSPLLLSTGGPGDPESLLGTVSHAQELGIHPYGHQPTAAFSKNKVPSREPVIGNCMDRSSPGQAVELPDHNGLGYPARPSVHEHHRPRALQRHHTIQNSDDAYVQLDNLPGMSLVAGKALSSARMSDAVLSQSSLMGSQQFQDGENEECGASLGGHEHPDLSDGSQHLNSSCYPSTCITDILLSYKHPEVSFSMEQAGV

For `O=C(N[C@@H](C1CC1)C(F)(F)F)c1cc(-c2cnn3cc(-c4ccc(F)cc4)cnc23)cs1`, the fold change (FC) amounted to 0.81 in assay [1]; 0.05 in assay [2]; 0.03 in assay [3]; 0 in assay [4]; 0.47 in [6]. Further, the inhibition (commonly the share of the control response that was lost under treatment) in [5] came out at 3%; in [7], 0%.
Consider `CNC(=O)c1ccccc1Oc1nc(Nc2cc(OC)c(OC)c(OC)c2)ncc1Br`, for which the inhibition in assay [8] turned out to be 0%; in assay [10] it was 19%; in assay [11], 14%. Also, the results for the fold change (FC) in [9] and in [12] were 0.09 and 0, respectively.
As to `CC(C)[C@H](NC(=O)c1cc(-c2cnn3cc(-c4ccc(OCCN5CCCCC5)cc4)cnc23)cs1)C(F)(F)F`, the fold change (FC) in assay [13] worked out at 0; in [14], 0.19; in assay [15] it was 0.05; in assay [16], 0.4; in [17] it was 0.01; in [18], 0.
